Data reported in the SangsterLogP compilation.

Assay: method code SF-AS, from Mayer, M.; Testa, B.; Van, H.; Bornand-Crausaz, A. (1982). Non-additivity amd intramolecular effects in the partition coefficient of omega-functionalized alkylpyridines. Eur J Med Chem, 17(5)453-459.

For `OCc1ccccn1`, which logP is on record?
Its logP is 0.06.

Which logP does the source give for `OCCCCc1ccccn1` here?
The logP was 0.86.

With `NC(=O)CCCCc1cccnc1` as the compound, how does the logP read?
Its logP is 0.4.

Which logP does the source give for `NCCc1ccccn1` here?
The logP was 0.08.

For `NCCCCc1ccccn1`, which logP is on record?
Its logP is 0.86.

For `OCCCc1cccnc1`, which logP is on record?
The logP was 0.6.

For `OCCc1ccccn1`, which logP is on record?
The logP was 0.12.

Which logP does the source give for `NCCCCCc1ccncc1` here?
Its logP is 1.4.

With `OCCCc1ccncc1` as the compound, how does the logP read?
Its logP is 0.58.

For `OCCCCCc1ccccn1`, which logP is on record?
The logP was 1.28.

For `OCc1cccnc1`, which logP is on record?
Its logP is -0.02.

For `NCc1ccccn1`, which logP is on record?
Its logP is -0.21.

With `NCCCCc1ccncc1` as the compound, how does the logP read?
The logP was 0.86.

With `OCCCCCc1cccnc1` as the compound, how does the logP read?
The logP was 1.41.

Which logP does the source give for `OCCCCc1ccncc1` here?
The logP was 0.9.

Which logP does the source give for `OCCc1ccncc1` here?
Its logP is 0.1.

Which logP does the source give for `NCc1ccncc1` here?
Its logP is -0.38.

Which logP does the source give for `NC(=O)CCc1ccncc1` here?
Its logP is -0.25.

For `NC(=O)CCc1cccnc1`, which logP is on record?
The logP was -0.26.

With `OCCCCc1cccnc1` as the compound, how does the logP read?
Its logP is 0.92.

For `OCCCCCc1ccncc1`, which logP is on record?
Its logP is 1.33.

With `NC(=O)CCc1ccccn1` as the compound, how does the logP read?
Its logP is -0.27.

For `NCCCCCc1cccnc1`, which logP is on record?
The logP was 1.41.

For `NCCCCc1cccnc1`, which logP is on record?
The logP was 0.88.

Which logP does the source give for `NC(=O)CCCCc1ccncc1` here?
Its logP is 0.42.

With `NCCCc1ccncc1` as the compound, how does the logP read?
The logP was 0.4.

With `NCCCc1ccccn1` as the compound, how does the logP read?
The logP was 0.49.

Which logP does the source give for `OCCc1cccnc1` here?
The logP was 0.12.

With `NCCc1ccncc1` as the compound, how does the logP read?
The logP was -0.01.

Which logP does the source give for `NCCc1cccnc1` here?
Its logP is 0.

Which logP does the source give for `NCCCc1cccnc1` here?
Its logP is 0.44.

With `NCCCc1ccccc1` as the compound, how does the logP read?
The logP was 1.83.

For `OCCCc1ccccn1`, which logP is on record?
The logP was 0.58.

With `NCCCCCc1ccccn1` as the compound, how does the logP read?
Its logP is 1.32.
